Data: patent US6207397A, “In vitro fluorescence polarization assay” (ARIAD Pharmaceuticals, Inc., priority 1997, dated 2001)
Where two headings read alike, the source gives them in different places. One block for each compound: values may come before it. Square brackets hold non-standard residues; d marks the D form. Peptide text beside a SMILES is read from it. * marks the point of attachment. 5FAM = O=C1OC2(c3ccc(O)cc3Oc3cc(O)ccc32)c2ccc(C(=O)*)cc21; pY = N[C@@H](Cc1ccc(OP(=O)(O)O)cc1)C(=O)O

Assays:
[1] = molecular target: T1, Src-SH2 domain (Homo sapiens, UniProt P12931); assay: Fluorescence polarization saturation experiment of probe FMT1 with Src-SH2; assay type: binding
T1 construct: Human Src encoding residues 145-251; made in house; host or cells: E. coli BL21 (DE3), pT7 expression vector
Method: Human Src encoding residues 145-251 [Tanaka, A. and Fujita, D. J., Mol. Cell. Biol. 6:3900-3909 (1986)] was cloned into the pT7 expression vector and transformed into E. coli BL21 (DE3). Protein was produced from the growth and induction of 27 liters of culture in minimal medium. In a typical preparation, the culture was grown at 37° C. to an optical density (OD) of 1.0 at 595 nm. The culture was induced with 1 mM isopropyl--D-thiogalactopyranoside (IPTG) and the temperature was dropped to 25° C. The culture was harvested 21 hours later.
(§1) All polarization methods were performed on an FPM2 96-well plate reader (Jolley), with standard cutoff filters (excitation=485 nm; emission=530 nm). Saturation experiments were used to explore various conditions for the assay, with the aim of maximizing the protein and assay stability, and of determining Kd s of the protein/probe interaction.
For saturation experiments, fixed concentrations of probe were used, and increasing concentrations of Src-SH2 were added. This is the reverse of the way such assays are commonly done with radioactive ligands.
A saturation experiment was conducted in which the Src-SH2 domain is varied in concentration from a high of 40 uM to a low of 39 nM. The fluorescent probe FMT1 (FIG. 1) was kept at a fixed concentration of 20 nM. Amino acid analysis was used to quantitate both the protein and probe concentrations. The results are illustrated in the saturation curve and Scatchard analysis of FIGS. 2A and 2B, respectively from this experiment.

[2] = molecular target: T2, Src-SH2 (Homo sapiens, UniProt P12931); assay: Fluorescence polarization Src-SH2 competition assay with peptides; assay type: binding; settings: for IC50: TABLE 1, fixed probe and Src-SH2, increasing peptide, read-out: Peptide competitive IC50
T2 construct: Human Src encoding residues 145-251; made in house; host or cells: E. coli BL21 (DE3), pT7 expression vector
Method: as §1
For competition experiments, fixed concentrations of probe and protein were used, and increasing concentrations of peptides were added.
All buffer components were low-fluorescence grade (Panvera Corporation). Standard (STD) buffer contains 20 mM phosphate (pH 7.4), 100 mM NaCl, 2 mM DTT, 1 mM EDTA, and 100 ug/ml BGG. Standard buffer is prepared by preparing NaCl, EDTA and phosphate stocks in Millipore water or the cleanest available water supply. The buffer is brought to volume in the same clean water.
The SRC protein is used at a concentration of 0.75 uM final. An example of SRC stock solution is 416.6 uM in STD buffer. […] It is desirable to make a 2× stock of this. For assays where the tighter-binding pYpYpYIE probe is used, the Src protein concentration can be reduced to 150 nM. In general, the concentration of the protein can be adjusted to match the affinity of the probe.
Fluor-GpYEEI is used as the probe at a concentration of 20 nM final. The probe stock sent is 10 uM in STD buffer.

[3] = molecular target: Src SH2-SH3 (Homo sapiens, UniProt P12931); assay: Fluorescence polarization saturation experiment, Src SH2-SH3 double binding assay; settings: saturation with Src-SH2-SH3; SH2-SH3 probe
From the text: Proteins such as Src contain both an SH2 and an SH3 domain. Certain proteins can bind to such SH2- SH3 proteins not through SH2 or SH3 domains alone, but through both domains at once. One example is the protein, p130CAS, which is thought to bind Src via both SH2 and SH3 domains. The SH3 and SH2 binding sequences of p130CAS have been identified by deletional and site-specific mutagenesis (Nakamoto et. al., JBC 271, 8959-8965, 1996). […] Fluorescent probes for FP assays were designed based on these sequences. Such probes can be used in assays that allow simultaneous screening for both SH2-specific and SH3-specific inhibitors. One such probe ("FPC130") is the following:
This is the native sequence from p130CAS (733-767). Derivative probes based on the foregoing but using different component SH2 and/or SH3 sequences may be used to vary the affinity or protein specificity, and especially to increase the overall affinity of probe for the desired target protein.

[4] = molecular target: GRB2 SH2 (Homo sapiens, UniProt P62993); settings: saturation with GRB2 SH2 protein
GRB2 SH2, sequence (P62993 55-152): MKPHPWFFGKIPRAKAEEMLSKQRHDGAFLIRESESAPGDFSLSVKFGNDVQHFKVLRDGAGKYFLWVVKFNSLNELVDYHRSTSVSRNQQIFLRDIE
Method: The human GRB2 protein tested in the assay comprised amino acid residues 55-152 of huGRB2 [see Cell 70: 431-442 (1992)], although longer sequences encompassing the SH2 domain may also be used. Production and purification of the protein domain was similar to methods described above, especially the use of a phosphotyrosine column to purify the GRB2 SH2domain.
As in previous examples, saturation experiments were performed with fixed concentrations of probe and increasing concentrations of Grb-2-SH2.
The following Grb-2-specific SH2 probe ("FPgb2") was synthesized using the techniques described in Example 1 [drawing 1] 2, Fluor-GpYVNV-NH2

[5] = molecular target: T3, Src SH3 (Homo sapiens, UniProt P12931); assay: Fluorescence polarization saturation experiment, Src SH3 binding assay with Src-SH2-SH3 protein; settings: SH3 probe
T3 construct: SH3-specific probe
From the text: Biol. 7(5): 1978-1983 (1987)], and a probe specific for the Src SH3 domain (in place of the Src-specific SH2 probe). Note that larger or smaller Src proteins may be used, so long as they include the Src SH3 domain (with or without the Src SH2 domain). Production and purification of the protein were essentially as described above, e.g., see Example 3. The following details are provided:
The following Src SH3 specific probe ("FPSH3") was synthesized using the techniques described in Example 1: […]

[6] = molecular target: T2, Src-SH2; assay: Fluorescence polarization saturation experiment with Src-SH2 using an alternate (BODIPY-TRX) probe; assay type: binding; settings: filters 591/635
From the text: A competition assay was developed for Src-SH2 (applicable to any fragment of Src containing the SH2 domain) with a non-fluorescein fluorophore. The fluorophore is one of a family of fluorescent molecules containing the core fluorophore, 4,4-difluoro-4 bora-3a,4a-diaza-s-indacene (commerciallyavailable from Molecular Probes Inc.). The structure of the fluorophore-peptide probe is: [drawing 2]
Specifically, the excitation/emission filters used with the above are 591/635, compared to 485/530 for fluorescein.
(§2) Synthesis of the peptide portion of the probe was as described in Example 1, with production of the peptide NH2-pYEEI. The probe was further synthesized by coupling the free amine peptide, NH2-pYEEI, with the succinimidyl ester of the BODIPY-TRX probe in a 66% DMSO buffer (34% 0.1 MNaBicarbonate). Completion of reaction was monitored by silica gel TLC (4:1:1, butanol, H2O , Acetic Acid solvent system), and was done by 24 hrs.
The only difference was the use of an alternate set of filters for the red probe, as described in A above.

[7] = Hydrophobicity of the BODIPY-TRX peptide probe; assay type: physicochemical; settings: resultant peptide
From the text: as §2

Compound: CC[C@H](C)[C@H](NC(=O)[C@H](CCC(=O)O)NC(=O)[C@H](CCC(=O)O)NC(=O)[C@H](Cc1ccc(OP(=O)(O)O)cc1)NC(=O)CNC(=O)c1ccc2c(c1)C(=O)OC21c2ccc(O)cc2Oc2cc(O)ccc21)C(N)=O [FMT1, fluorescein-G-pYEEI-NH2] (5FAM-G[pY]EEI-NH2)
Kd ([1]; FIG. 2A, error of 0.008, FMT1 fixed at 20 nM, Src-SH2 39 nM to 40 uM, read-out: Calculated Kd (non-linear least squares fit of saturation experiment)): 240 nM
Kd ([1]; FIG. 2B, R value 0.992 for the linear fit, read-out: Calculated Kd (Scatchard analysis)): 260 nM
Binding mode in saturation experiment ([1]; FIGS. 2A and 2B): saturable binding to a single site is observed
Kd ([1]; standard buffer conditions, read-out: Kd towards Src-SH2): ~300 nM

IC50 [2]: 700000 nM
Compound: Ac-pYGGL

Compound: CC[C@H](C)[C@H](NC(=O)[C@H](Cc1ccc(OP(=O)(O)O)cc1)NC(=O)[C@H](Cc1ccc(OP(=O)(O)O)cc1)NC(=O)[C@H](Cc1ccc(OP(=O)(O)O)cc1)NC(=O)c1ccc2c(c1)C(=O)OC21c2ccc(O)cc2Oc2cc(O)ccc21)C(=O)N[C@@H](CCC(=O)O)C(N)=O [pYpYpYIE probe, fluorescein-pYpYpYIE-NH2] (5FAM-[pY][pY][pY]IE-NH2)
Relative binding of probe to Src ([2]; probe allowing Src protein reduced to 150 nM): tighter-binding

Compound: Fluor-RPLPSPPKFTSQDSPDGQYENSEGGWMEDpYDYVHL [FPC130]
Kd and total mP difference on protein binding [3]: appropriate Kd and total mP difference on protein binding

IC50 [2]: 500 nM
Compound: Ac-pYpYpYIE

IC50 [2]: 1500 nM
Compound: Ac-pYpYEEI

IC50 [2]: 100000 nM
Compound: Ac-pYTGL

Compound: CC(C)[C@H](NC(=O)[C@H](CC(N)=O)NC(=O)[C@@H](NC(=O)[C@H](Cc1ccc(OP(=O)(O)O)cc1)NC(=O)CNC(=O)c1ccc2c(c1)C(=O)OC21c2ccc(O)cc2Oc2cc(O)ccc21)C(C)C)C(N)=O [FPgb2, Fluor-GpYVNV-NH2] (5FAM-G[pY]VNV-NH2)
Kd and total mP difference on protein binding [4]: appropriate Kd and total mP difference on protein binding

Compound: CC(C)C[C@H](NC(=O)[C@@H]1CCCN1C(=O)c1ccc2c(c1)C(=O)OC21c2ccc(O)cc2Oc2cc(O)ccc21)C(=O)N[C@@H](C)C(=O)N[C@@H](CCCNC(=N)N)C(=O)N[C@@H](CCCNC(=N)N)C(=O)N1CCC[C@H]1C(=O)N[C@@H](CC(C)C)C(=O)N1CCC[C@H]1C(=O)N1CCC[C@H]1C(=O)N[C@@H](CC(C)C)C(=O)N1CCC[C@H]1C(N)=O [FPSH3] (5FAM-PLARRPLPPLP-NH2)
Kd and total mP difference on protein binding [5]: appropriate Kd and total mP difference on protein binding

Compound: CC[C@H](C)[C@H](NC(=O)[C@H](CCC(=O)O)NC(=O)[C@H](CCC(=O)O)NC(=O)[C@H](Cc1ccc(OP(=O)(O)O)cc1)NC(=O)CCCCCNC(=O)CC1=C(C)C2=Cc3ccc(-c4ccc(OC)cc4)n3[B-](F)(F)[N+]2=C1C)C(N)=O [BODIPY-TRX probe]
Kd and total mP difference on protein binding [6]: adequate Kd and total mP difference on protein binding
Hydrophobicity [7]: quite hydrophobic
